Data taken from patent US12692301B2, “Methods of improving retina-associated disease outcome using CCR3-inhibitors” (ALKAHEST INC., priority 2020, dated 2026).
Read-outs that look alike come from different tables or passages of the source.

Key:
CCR3 [1] = biological target: T1, CCR3 (Homo sapiens, UniProt P51677); details: assay not stated; from the cited reference; cited from earlier work
T1 sequence (P51677 1-355): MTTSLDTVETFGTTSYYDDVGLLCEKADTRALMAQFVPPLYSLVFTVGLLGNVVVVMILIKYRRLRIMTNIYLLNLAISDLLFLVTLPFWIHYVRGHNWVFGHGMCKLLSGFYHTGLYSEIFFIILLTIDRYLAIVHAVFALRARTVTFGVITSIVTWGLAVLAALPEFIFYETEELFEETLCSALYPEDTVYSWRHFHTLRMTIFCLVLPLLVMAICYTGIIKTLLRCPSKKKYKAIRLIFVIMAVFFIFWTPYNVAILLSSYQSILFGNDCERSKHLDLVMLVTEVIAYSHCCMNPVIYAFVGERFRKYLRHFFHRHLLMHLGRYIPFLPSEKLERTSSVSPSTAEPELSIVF

CCR3 [2] = biological target: T1, CCR3; details: from the cited reference; read-out: IC50 (binding); cited from earlier work
CCR3 [3] = biological target: T1, CCR3; details: from the cited reference; read-out: IC50 (chemotaxis); cited from earlier work
CCR3 [4] = biological target: T1, CCR3; details: from the cited reference; read-out: IC50 (Calcium influx); cited from earlier work
[5] = tested on: refractory wet Age-Related Macular Degeneration (wAMD); assay: clinical case, refractory subject eyes: oral Compound 1 followed by IVT anti-VEGF; type: in vivo, human; details: Compound 1 regimen followed by IVT anti-VEGF, summary
Protocol: Subjects with refractory wet Age-Related Macular Degeneration (wAMD) were administered 400 mg of Compound 1 CCR antagonist orally twice per day (BID) for a total dose of 800 mg per day. The treatment regimen of Compound 1 lasted 6-weeks. Refractory subjects for this 6-week regimen were described as having persistent subretinal fluid, intraretinal fluid, and absence of improvement in visual acuity after at least 3 consecutive (approximately 4-6 weeks apart) IVT anti-VEGF injections. After the end of a clinical trial consisting of 6-weeks of Compound 1 CCR antagonist treatment, and four weeks of clinical trial follow up with no additional treatment, a subject with heavily pre-treated bilateral disease entered back into normal treatment with their physician and was treated or re-treated with α-VEGF agents per physician judgment guided by standard criteria such as new CNV activity on OCT/angiography OCT (angio-OCT or aOCT) or foveal subretinal fluid (SRF)/intra-retinal fluid (IRF) or PED. Different α-VEGF agents (described in FIGS. 4-5, 9-10, 14-15, 19-21 and Tables D and H) were administered by intra-vitreal injection. […] The central retinal thickness (CRT) was measured automatically (software version 9.6). […] Subretinal and intraretinal fluid presence was assessed manually. […] CNV activity signs such as neovascular vasculature seen on OCT angiography were monitored. […]

[6] = tested on: human eotaxin-1 induced eosinophil shape change; details: human whole blood; read-out: IC50, antagonism of human eotaxin-1 induced eosinophil shape change; cited from earlier work
[7] = tested on: choroidal neovascularization (CNV) secondary to wAMD; assay: clinical cases, naïve subject eyes: oral Compound 1 followed by IVT anti-VEGF; type: in vivo, human
Protocol: Newly diagnosed subjects with choroidal neovascularization (CNV) secondary to wAMD were administered 400 mg of Compound 1 CCR antagonist orally twice per day (BID) for a total dose of 800 mg per day. The clinical trial treatment regimen included 6 weeks of Compound 1 followed by 4 weeks of safety follow up (weeks 7 and 8 as in office visits and follow up by phone at week 10) with no additional Compound 1 treatment. Subject treatment visits took place once per week where mean changes in BCVA as measured by ETDRS were noted, slit lamp and SD-OCT performed, and intraocular pressure taken. Subjects then returned to routine treatment with their physician post clinical trial and were treated or re-treated with α-VEGF agents per physician judgment guided by standard criteria such as new CNV activity on OCT/angio-OCT (aOCT) or increased foveal subretinal fluid (SRF)/intra-retinal fluid (IRF). Different α-VEGF agents (described in FIGS. 1-3, 6-8, 11-13, and 16-18, 21 and Tables A-C and E-G) were administered by intra-vitreal injection. For aflibercept, 2 mg in 0.05 mL was given per single intravitreal injection. For bevacizumab, 1.25 mg in 0.05 mL was given per single intravitreal injection. For ranibizumab, 0.5 mg in 0.05 mL was given per single intravitreal injection. All OCT tests were performed using REVO NX (Optopol Technology, Poland). A 3-dimensional (3D) scanning protocol covering a 7×7 mm area was used (1024 A-scans×64 tomograms). The central retinal thickness (CRT) was measured automatically (software version 9.6). The detection of the fovea and the accuracy of layers segmentation was checked by the operator. If necessary, the fovea location and the outer retinal boundaries were corrected manually by moving the pointer to the desired position. In such cases, the central macular thickness value was recalculated. Subretinal and intraretinal fluid presence was assessed manually. SRF was defined as a hyporeflective space between retinal pigment epithelium and the sensory retina, whereas IRF as ovoid or round spaces within the retina, with a low reflectivity content. SRF and IRF was distinguished from the outer retinal tubulations (ORTs) and degenerative IRF. The latter were not recognized as a CNV activity sign. CNV activity signs such as neovascular vasculature seen on OCT angiography were monitored. Additionally, lipid exudates and enlargement of RPE elevation were noted.

neovascular (wet) AMD = details: cited from earlier work; for patients with persistent presence of fluid at the retina (OCT or angiography): IVT, after two years of monthly injections
[8] = Patient Case 3, after 6 weeks oral Compound 1, once ranibizumab, subsequently bevacizumab

CN1CCC(c2ccccc2)[C@@H]1COc1cccnc1 (stereo partly drawn)
IC50 (CCR3 [1]): 195 nM

CC(=O)Nc1ccc2nc(SCC(=O)NC3CCN(Cc4ccc(Cl)c(Cl)c4)CC3)sc2c1
IC50 (CCR3 [1]): 1.5 nM

C[C@@H](NC(=O)Nc1cccc(-c2nnnn2C)c1)C(O)CN1CCC[C@@H](Cc2ccc(F)cc2)C1 (stereo partly drawn)
IC50 (CCR3 [2]): 0.3 nM | IC50 (CCR3 [3]): 0.038 nM

CCCN1CCC(Cc2ccc(F)cc2)C[C@@H]1CCCNC(=O)Nc1cccc(C(C)=O)c1 (stereo partly drawn)
IC50 (CCR3 [4]): 26 nM | IC50 (CCR3 [2]): 2 nM | IC50 (CCR3 [3]): 19 nM

NC(=O)c1ccc(CNC(=O)NCC2CN(Cc3ccc(Cl)c(Cl)c3)CCO2)cc1 (stereo not drawn)
IC50 (CCR3 [1]): 10 nM

O=C(NCC1CCCN(C2CCN(Cc3ccc(Cl)c(Cl)c3)CC2)C1)c1cccc2cccnc12 (stereo not drawn)
IC50 (CCR3 [1]): 30 nM

Cc1ccc(C(=O)N[C@@H](Cc2ccc(Cl)cc2)C(=O)N[C@@H](C)C(=O)Nc2ccc(Cl)cc2)c(C)c1
IC50 (CCR3 [1]): 3.5 nM

O=C(Nc1ccccc1[N+](=O)[O-])[C@@H]1CCCN1CNC1CC2CCC(C1)N2Cc1ccc2cc(F)ccc2c1 (stereo partly drawn)
IC50 (CCR3 [1]): 4.9 nM

CC1=C(CC(CCc2ccc([N+](=O)[O-])cc2)C2CCN(C(=O)c3ccncc3)CC2)C(=O)N(c2ccc(F)cc2)C1C (stereo not drawn)
IC50 (CCR3 [1]): 12 nM

Cc1ccc[n+]([O-])c1C(=O)N1CCC(=CC(=O)N[C@@H]2CCN(Cc3ccc4cc(F)ccc4c3)C2)CC1
IC50 (CCR3 [4]): 5.4 nM | IC50 (CCR3 [2]): 3 nM | IC50 (CCR3 [3]): 19.9 nM

Cc1ccc(C(=O)N2CCC(=CC(=O)N[C@@H]3CCN(Cc4ccc5cc(F)ccc5c4)C3)CC2)nn1
IC50 (CCR3 [4]): 6.2 nM

Cc1cc(C(=O)N(C)C)cc(NC(=O)[C@H]2CCC(=O)N2C2CCN(Cc3ccc(Cl)c(C)c3)CC2)n1 [Compound 1]
CRT [5]: stabilized | Central retinal pigmental epithelium detachment height [5]: reduced | IC50 [6]: 42.5 ± 43.5 nM

aflibercept
average anti-VEGF doses required per year ([7]; Patient Case 2, after 6 weeks oral Compound 1): 2.36 doses per year

bevacizumab
average anti-VEGF doses required per year ([7]; Patient Case 1, after 6 weeks oral Compound 1): 0.667 dose per year | average anti-VEGF doses required per year [7, 8]: 1.23 dose per year | patients with persistent presence of fluid at the retina (OCT or angiography) (neovascular (wet) AMD): 67.4%

B1: ranibizumab (antibody, chains of the INN, looked up, V domains shown)
VH: EVQLVESGGGLVQPGGSLRLSCAASGYDFTHYGMNWVRQAPGKGLEWVGWINTYTGEPTYAADFKRRFTFSLDTSKSTAYLQMNSLRAEDTAVYYCAKYPYYYGTSHWYFDVWGQGTLVTVSS
VL: DIQLTQSPSSLSASVGDRVTITCSASQDISNYLNWYQQKPGKAPKVLIYFTSSLHSGVPSRFSGSGSGTDFTLTISSLQPEDFATYYCQQYSTVPWTFGQGTKVEIK
modifications: Fab
notes: anti-VEGF antibody, intravitreal injection
average anti-VEGF doses required per year [7, 8]: 1.23 dose per year | patients with persistent presence of fluid at the retina (OCT or angiography) (neovascular (wet) AMD): 51.5% | additional average letter gain with monthly dosing versus less frequent dosing (neovascular (wet) AMD; nine months after 3 initial monthly doses, FDA label): 1-2 letter | loss of visual acuity benefit, dosing every 3 months compared with continued monthly dosing (neovascular (wet) AMD; over the next 9 months after 4 monthly doses, FDA label): ~5 letter
